According to article PMC6311682, “Design, Synthesis, and Biological Evaluation of 2-Nitroimidazopyrazin-one/-es with Antitubercular and Antiparasitic Activity” (Journal of Medicinal Chemistry, 2018):
Values after ≈ are worked out from the molar mass of the structure shown. Read-outs that look alike come from different tables or passages of the source.

What was measured:
[1] = test system: ESKAPE pathogens S. aureus (ATCC 43300), E. coli (ATCC 25922), K. pneumoniae (ATCC 700603), A. baumannii (ATCC 19606), P. aeruginosa (ATCC 27853); assay: Broth microdilution MIC assay, ESKAPE pathogens; assay type: cell-based
[2] = Broth microdilution MIC assay, ESKAPE pathogens; assay type: cell-based; settings: S. aureus, E. coli, K. pneumoniae, A. baumannii, P. aeruginosa; read-out: antibacterial MIC ESKAPE
[3] = Plasma protein binding, ultrafiltration method; assay type: in vitro ADME; settings: human plasma, % bound; for fraction unbound at 0.5 h, 5 µM: read-out: PPB (%) (converted)
[4] = test system: L. donovani MHOM/IN/80/DD8 (ATCC50212); assay: L. donovani DD8 intracellular (THP-1) amastigote assay; assay type: cell-based; settings: Leishmania donovani
[5] = Kinetic solubility determination by LC-UV; settings: room temperature, 1% DMSO
[6] = Caco-2 monolayer bidirectional permeability assay; settings: human, Caco-2, pH 7.4
[7] = test system: E. histolytica (HM1:IMSS); assay: ATP-bioluminescence cell growth and survival assay, E. histolytica trophozoites; assay type: cell-based; settings: Entamoeba histolytica
M. tuberculosis (H37Rv) [8] = assay: M. tuberculosis H37Rv resazurin reduction microplate MIC assay, hypoxic conditions (0.1% oxygen); assay type: cell-based, Mycobacterium tuberculosis; settings: for MIC: Mycobacterium tuberculosis, H37Rv, hypoxia (0.1% oxygen), read-out: antibacterial MIC M. tuberculosis hypoxia
[9] = test system: C. difficile (630, ATCC BAA-1382); assay: Broth microdilution MIC assay, C. difficile; assay type: cell-based, Clostridium difficile; settings: 630 ATCC BAA-1382, median MIC; for MIC: Clostridioides difficile, ATCCBAA1382, read-out: antibacterial MIC C. difficile
[10] = Mammalian cytotoxicity assay (resazurin), HEK293; settings: human, HEK293 cells
[11] = Mammalian cytotoxicity assay (resazurin), HepG2; settings: human, HepG2 cells
[12] = test system: C. albicans (ATCC 90028) and C. neoformans (H99, ATCC 208821); assay: Broth microdilution MIC assay, fungi; assay type: cell-based; settings: for MIC: Candida albicans, read-out: antifungal MIC
M. tuberculosis (H37Rv) [13] = assay: M. tuberculosis H37Rv resazurin reduction microplate MIC assay, normoxic conditions; assay type: cell-based; settings: Mycobacterium tuberculosis, normoxia, read-out: antibacterial MIC M. tuberculosis normoxia
G. lamblia (WB line) = assay: ATP-bioluminescence cell growth and survival assay, G. lamblia trophozoites; assay type: cell-based; settings: Giardia duodenalis
HEK293 cells = test system: HEK293 cells; parameters: method as in Jarrad et al. 2; settings: ATCC CRL-1573; ref Jarrad et al. 2; read-out: cytotoxicity CC50 HEK 293; cited from earlier work
HepG2 cells = test system: HepG2 cells; parameters: method as in Jarrad et al. 2; settings: ATCC HB-8065; ref Jarrad et al. 2; read-out: cytotoxicity CC50 HepG2; cited from earlier work
[14] = test system: T. b. brucei (strain 427, BS427); assay: 384-well resazurin viability assay, T. b. brucei bloodstream parasites; assay type: cell-based; settings: Trypanosoma brucei, BS427, n = 2
[15] = read-out: antiparasitic IC50 L. donovani
[16] = read-out: antiparasitic pIC50 ± SE L. donovani (converted)
[17] = PBS, pH 7.4, Solubility µM (PBS), PBS pH 7.4, 24 h
[18] = water, Solubility µM (H2O), 24 h
[19] = read-out: antiparasitic IC50 E. histolytica
[20] = read-out: antiparasitic pIC50 ± SE E. histolytica (converted)
[21] = read-out: antiparasitic IC50 G. lamblia
[22] = read-out: antiparasitic IC50 T. b. brucei

Structure (SMILES) | antibacterial MIC ESKAPE [1] [µg/mL] | MIC [2] [µg/mL] | fraction unbound at 0.5 h, 5 µM [3] | IC50 [4, 15] [µM] | IC50 [4, 16] [µM] | solubility at 24 h [5, 17] [µM] | solubility at 24 h [5, 18] [µM] | IC50 [7, 19] [µM] | IC50 [7, 20] [µM] | antibacterial MIC C. difficile [9] [µg/mL] | MIC [9] [µg/mL] | CC50 at 24 h [10] [µM] | CC50 at 24 h [11] [µM] | antifungal MIC [12] [µg/mL] | MIC [12] [µg/mL] | MIC (M. tuberculosis (H37Rv) [13]) [µg/mL] | also measured
O=c1c2nc([N+](=O)[O-])cn2ccn1Cc1cccc(OC(F)(F)F)c1 [17f, 2-Nitro-7-(3-(trifluoromethoxy)benzyl)imidazo[1,2-a]pyrazin-8(7H)-one] | > 32 | > 32 | 0.01 | > 80 | > 79.4 | < 5 | < 5 | – | – | – | – | – | – | – | – | – | Papp A→B at 2 h, 2 µM [6]: 24 ×10⁻⁶ cm/s; Papp A→B at 2 h, 2 μM [6]: > 20 ×10⁻⁶ cm/s; Papp B→A at 2 h, 2 µM [6]: 24 ×10⁻⁶ cm/s
Cc1cccc(Cn2ccn3cc([N+](=O)[O-])nc3c2=O)c1 [17g, 7-(3-Methylbenzyl)-2-nitroimidazo[1,2-a]pyrazin-8(7H)-one] | >32 | > 32 | – | > 20 | > 20 | < 5 | < 5 | > 50 | > 50.1 | – | – | – | – | – | – | – | M. tuberculosis hypoxia % I (M. tuberculosis (H37Rv) [8]; @ 0.125–8 μg/mL): 70–90% I @ 0.125–8 μg/mL
Cc1cn2cc([N+](=O)[O-])nc2c(=O)n1Cc1ccc(OC(F)(F)F)cc1 [25f, 6-Methyl-2-nitro-7-(4-(trifluoromethoxy)benzyl)imidazo[1,2-a]pyrazin-8(7H)-one] | >32 | > 32 | 0.02 | > 80 | > 79.4 | < 5 | < 5 | – | – | >64 | > 64 | > 100 | > 100 | >32 | > 32 | – | –
O=c1c2nc([N+](=O)[O-])cn2ccn1Cc1ccc(F)cc1 [17e, 7-(4-Fluorobenzyl)-2-nitroimidazo[1,2-a]pyrazin-8(7H)-one] | >32 | > 32 | 0.18 | > 80 | > 79.4 | < 5 | < 5 | – | – | – | – | – | – | – | – | – | –
Cc1ccc(CCn2ccn3cc([N+](=O)[O-])nc3c2=O)cc1 [17n, 7-(4-Methylphenethyl)-2-nitroimidazo[1,2-a]pyrazin-8(7H)-one] | >32 | > 32 | – | > 80 | > 79.4 | < 5 | < 5 | > 50 | > 50.1 | >64 | > 64 | – | – | – | – | 4 (≈ 13.4 µM) | IC50 (G. lamblia (WB line); [21]): 1.6 to 3.2 µM
NC(=O)c1ncc([N+](=O)[O-])[nH]1 [16a] | – | – | – | – | – | – | – | – | – | – | – | – | – | – | – | > 32 | CC50 (HEK293 cells): > 100 µM; MIC (M. tuberculosis (H37Rv) [8]): > 32 µg/mL; CC50 (HepG2 cells): > 100 µM
Cc1cn2cc([N+](=O)[O-])nc2c(OCc2ccc(OC(F)(F)F)cc2)n1 [25g, 6-Methyl-2-nitro-8-((4-(trifluoromethoxy)benzyl)oxy)imidazo[1,2-a]pyrazine] | >32 | > 32 | – | > 80 | > 79.4 | < 5 | < 5 | – | – | >64 | > 64 | > 100 | > 100 | >32 | > 32 | – | fraction unbound at 30 min, 5 μM ([3]; read-out: PPB (%)): < 0.01
CC(=O)OCCn1c(-c2ccccc2)cn2cc([N+](=O)[O-])nc2c1=O [24b, 2-(2-Nitro-8-oxo-6-phenylimidazo[1,2-a]pyrazin-7(8H)-yl)ethyl Acetate] | >32 | > 32 | – | > 80 | > 79.4 | 187 ± 17.4 | 164 ± 7.57 | – | – | – | 64 | > 100 | > 100 | >32 | > 32 | – | IC50 [14, 22]: < 1 µM
O=c1c2nccn2ccn1Cc1ccccc1 [20b, 7-Benzylimidazo[1,2-a]pyrazin-8(7H)-one] | – | > 32 | – | > 80 | > 79.4 | – | – | > 25 | > 25.1 | – | > 64 | > 100 | > 100 | – | > 32 | > 32 | IC50 (G. lamblia (WB line); [21]): > 25 µM; IC50 (G. lamblia (WB line); read-out: antiparasitic pIC50 ± SE G. lamblia (converted)): > 25.1 µM; MIC (M. tuberculosis (H37Rv) [8]): > 32 µg/mL; IC50 [14, 22]: > 40 µM; IC50 ([14]; read-out: antiparasitic pIC50 ± SE T. b. brucei (converted)): > 39.8 µM
